Assay results: patent publication US10005782B2, “Substituted pyrazolo[1,5-a]pyrimidines as bruton's tyrosine kinase modulators” (BeiGene, Ltd., priority 2013, dated 2018)
Like-named read-outs stand apart in the source and are kept apart here.

Molecular target: Recombinant Btk (Homo sapiens (Human), UniProt Q06187)
Assay: Btk kinase assay (TR-FRET)
[1] = read-out: IC50 (nM) Btk, 1 hour pre-incubation, ATP at Km

Sequence of Recombinant Btk (Q06187 whole entry): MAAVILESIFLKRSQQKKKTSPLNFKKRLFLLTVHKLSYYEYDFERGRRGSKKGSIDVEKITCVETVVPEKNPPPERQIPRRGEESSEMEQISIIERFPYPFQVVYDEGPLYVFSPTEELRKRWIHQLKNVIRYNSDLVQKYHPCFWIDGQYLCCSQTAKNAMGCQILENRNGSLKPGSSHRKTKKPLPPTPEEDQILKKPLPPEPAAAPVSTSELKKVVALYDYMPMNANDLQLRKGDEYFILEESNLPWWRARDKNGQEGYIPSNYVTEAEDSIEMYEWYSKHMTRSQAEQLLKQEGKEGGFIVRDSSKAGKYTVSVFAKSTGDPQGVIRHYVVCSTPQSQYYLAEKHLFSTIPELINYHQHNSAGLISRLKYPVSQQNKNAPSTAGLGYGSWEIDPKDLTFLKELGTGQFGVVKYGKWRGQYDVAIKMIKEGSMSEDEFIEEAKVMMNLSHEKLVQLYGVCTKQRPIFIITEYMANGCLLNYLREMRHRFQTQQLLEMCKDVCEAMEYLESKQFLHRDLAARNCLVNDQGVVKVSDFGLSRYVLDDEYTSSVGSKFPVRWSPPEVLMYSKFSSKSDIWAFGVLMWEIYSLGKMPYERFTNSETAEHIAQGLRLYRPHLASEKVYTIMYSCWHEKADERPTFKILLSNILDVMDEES

Row | Compound | IC50 [1] [nM] | other results
1 | C=CC(=O)Nc1ccccc1C1CCNc2c(C(N)=O)c(-c3ccc(F)c(F)c3)nn21 (stereo not shown) [Compound 137, 7-(2-acrylamidophenyl)-2-(3,4-difluorophenyl)-4,5,6,7-tetrahydropyrazolo[1,5-a]pyrimidine-3-carboxamide] | 3.7 | 
2 | NC(=O)c1c(-c2ccc(Oc3ccccc3)cc2)nn2c1NCCC2c1cccc(N)c1 (single isomer, unassigned) [Compound 2a, 7-(3-Aminophenyl)-2-(4-phenoxyphenyl)-4,5,6,7-tetrahydropyrazolo[1,5-a]pyrimidine-3-carboxamide] |  | IC50 (read-out: IC50 (nM) Btk, 1 hour pre-incubation, ATP at Km, listed as 2a (peak 1)): 270 nM
3 | C=CC(=O)Nc1ccccc1C1CCNc2c(C(N)=O)c(-c3ccc(OC)c(OC)c3)nn21 (stereo not shown) [Compound 168, 7-(2-Acrylamidophenyl)-2-(3,4-dimethoxyphenyl)-4,5,6,7-tetrahydropyrazolo[1,5-a]pyrimidine-3-carboxamide] | 3.7 | 
4 | NC(=O)c1c(-c2ccc(Oc3ccccc3)cc2)nn2c1NCCC2c1cccc(N)c1 (single isomer, unassigned) [Compound 2b, 7-(3-Aminophenyl)-2-(4-phenoxyphenyl)-4,5,6,7-tetrahydropyrazolo[1,5-a]pyrimidine-3-carboxamide] |  | IC50 (read-out: IC50 (nM) Btk, 1 hour pre-incubation, ATP at Km, listed as 2b (peak 2)): 210 nM
